≈ marks a conversion by molar mass, not a printed value. Calls of active or inactive are those of the source. The rule behind the calls is not given here.
What was measured:
Candida albicans [1] = experiment: Antifungal activity against Candida albicans 90028 assessed as fungal growth inhibition at 2 ug/ml measured after 18 hrs by microdilution method relative to control; format: functional; details: read-out: GI
Candida albicans [2] = experiment: Induction of plasma membrane disruption in Candida albicans assessed as accidental type cell death at 0.25 ug/ml measured after 18 hrs by Annexin V-FITC/propidium iodide staining based flow cytometry (reference value: 1.74 +/- 1.37%); details: dose 0.25 µg/ml
Candida albicans [3] = experiment: Antifungal activity against Candida albicans 90028 assessed as fungal growth inhibition at 4 ug/ml measured after 18 hrs by microdilution method relative to control; format: functional; details: read-out: GI
Candida albicans [4] = experiment: Antifungal activity against Candida albicans 90028 assessed as fungal growth inhibition at 0.0625 ug/ml measured after 48 hrs by microdilution method relative to control; format: functional; details: read-out: GI
Candida albicans [5] = experiment: Anti-adhesive activity against Candida albicans assessed as reduction in […] adhesion to human TR146 cells at 0.25 ug/ml incubated for 2 hrs prior to cell infection and measured after 2 hrs by colony counting method relative to control; format: functional; parameters: scale not given: the % may be the effect or the level left; details: dose 0.25 µg/ml; time 4 hrs
Candida albicans [6] = experiment: Antifungal activity against Candida albicans 90028 assessed as fungal growth inhibition measured after 48 hrs by microdilution method; format: functional
Candida albicans [7] = experiment: Antifungal activity against Candida albicans 90028 assessed as fungal growth inhibition at 16 ug/ml measured after 48 hrs by microdilution method relative to control; format: functional; details: read-out: GI
Candida albicans [8] = experiment: Antifungal activity against Candida albicans 90028 assessed as fungal growth inhibition at 1 ug/ml measured after 48 hrs by microdilution method relative to control; format: functional; details: read-out: GI
Candida albicans [9] = experiment: Antifungal activity against Candida albicans 90028 assessed as fungal growth inhibition at 4 ug/ml measured after 48 hrs by microdilution method relative to control; format: functional; details: read-out: GI
Candida albicans [10] = experiment: Antibiofilm activity against Candida albicans 90028 assessed as cell killing at 256 ug/ml by XTT assay relative to control; format: functional; details: dose 256 µg/ml
[11] = Induction of adhesive activity against Candida albicans assessed as increase in […] adhesion to human TR146 cells at 0.125 ug/ml incubated for 2 hrs prior to cell infection and measured after 2 hrs by colony counting method relative to control; format: cell-based; details: tr146, 2 h, dose 0.125 µg/ml
Candida albicans [12] = experiment: Antifungal activity against Candida albicans 90028 assessed as fungal growth inhibition at 1 ug/ml measured after 18 hrs by microdilution method relative to control; format: functional; details: read-out: GI
Candida albicans [13] = experiment: Antifungal activity against Candida albicans 90028 assessed as fungal growth inhibition at 0.125 ug/ml measured after 18 hrs by microdilution method relative to control; format: functional; details: read-out: GI
Candida albicans [14] = experiment: Antifungal activity against Candida albicans 90028 assessed as fungal growth inhibition at 0.25 ug/ml measured after 48 hrs by microdilution method relative to control; format: functional; details: read-out: GI
Vero [15] = experiment: Cytotoxicity against African green monkey Vero cells at 0.25 to 512 ug/ml by XTT assay relative to control; format: cell-based; details: chlorocebus sabaeus, at 0.25 to 512 µg/mL, dose 0.25-512 µg/ml
Candida albicans [16] = experiment: Antifungal activity against Candida albicans 90028 assessed as fungal growth inhibition at 0.0313 ug/ml measured after 18 hrs by microdilution method relative to control; format: functional; details: read-out: GI
Candida albicans [17] = experiment: Antifungal activity against Candida albicans 90028 assessed as fungal growth inhibition at 8 ug/ml measured after 18 hrs by microdilution method relative to control; format: functional; details: read-out: GI
Candida albicans [18] = experiment: Antifungal activity against Candida albicans 90028 assessed as fungal growth inhibition at 8 ug/ml measured after 48 hrs by microdilution method relative to control; format: functional; details: read-out: GI
[19] = Toxicity in Galleria mellonella larvae assessed as survival at 16 ug/ml relative to control; details: at 16 µg/mL
Candida albicans [20] = experiment: Antifungal activity against Candida albicans 90028 assessed as fungal growth inhibition at 0.5 ug/ml measured after 48 hrs by microdilution method relative to control; format: functional; details: read-out: GI
Candida albicans [21] = experiment: Antifungal activity against Candida albicans 90028 assessed as fungal growth inhibition at 0.25 ug/ml measured after 18 hrs by microdilution method relative to control; format: functional; details: read-out: GI
Candida albicans [22] = experiment: Antifungal activity against Candida albicans 90028 assessed as fungal growth inhibition at 0.125 ug/ml measured after 48 hrs by microdilution method relative to control; format: functional; details: read-out: GI
Candida albicans [23] = experiment: Antifungal activity against Candida albicans 90028 assessed as fungal growth inhibition at 16 ug/ml measured after 18 hrs by microdilution method relative to control; format: functional; details: read-out: GI
Candida albicans [24] = experiment: Antifungal activity against Candida albicans 90028 assessed as fungal growth inhibition at 0.0313 ug/ml measured after 48 hrs by microdilution method relative to control; format: functional; details: read-out: GI
Candida albicans [25] = experiment: Antifungal activity against Candida albicans 90028 assessed as fungal growth inhibition at 0.5 ug/ml measured after 18 hrs by microdilution method relative to control; format: functional; details: read-out: GI
Candida albicans [26] = experiment: Antifungal activity against Candida albicans 90028 assessed as fungal growth inhibition at 2 ug/ml measured after 48 hrs by microdilution method relative to control; format: functional; details: read-out: GI
Candida albicans [27] = experiment: Fungicidal activity against Candida albicans 90028 preincubated for 48 hrs followed by plating on SD agar and measured after 48 hrs; format: functional; details: time 96 hrs
[28] = Cytotoxicity against human MRC5 cells by CellTiter 96 Aqueous One Solution Reagent based assay; format: cell-based
Candida albicans [29] = experiment: Antifungal activity against Candida albicans 90028 infected in Galleria mellonella larvae at 16 ug/ml by H and E staining based histological analysis; format: functional, organism-based; details: dose 16.0 µg/ml
Candida albicans [30] = experiment: Antibiofilm activity against Candida albicans 90028 assessed as increasing in cell killing by XTT assay; format: functional
Candida albicans [31] = experiment: Antifungal activity against Candida albicans 90028 assessed as fungal growth inhibition at 0.0625 ug/ml measured after 18 hrs by microdilution method relative to control; format: functional; details: read-out: GI
Candida albicans [32] = experiment: Antifungal activity against Candida albicans 90028 infected in Galleria mellonella larvae assessed as increase in larvae survival at MFC measured 96 hrs post-infection relative to control; format: functional
[33] = Induction of adhesive activity against Candida albicans assessed as increase in […] adhesion to human TR146 cells at 2 ug/ml incubated for 2 hrs prior to cell infection and measured after 2 hrs by colony counting method relative to control; format: cell-based; details: tr146, 4 h, dose 2 µg/ml
Candida albicans [34] = experiment: Induction of morphological changes in Candida albicans biofilm infected in human TR146 cells at 16 ug/ml measured after 20 hrs by fluorescence microscopy based QCM-D analysis; format: functional, organism-based; details: dose 16.0 µg/ml
[35] = Cytotoxicity against African green monkey Vero cells by XTT assay; format: cell-based; details: chlorocebus sabaeus
Candida albicans [36] = experiment: Anti-adhesive activity against Candida albicans assessed as reduction in […] adhesion to human TR146 cells at 4 ug/ml incubated for 2 hrs prior to cell infection and measured after 2 hrs by colony counting method relative to control; format: functional; parameters: scale not given: the % may be the effect or the level left; details: dose 4 µg/ml; time 4 hrs
[37] = Cytotoxicity against human TR146 cells assessed as induction of lysosomal membrane permeabilization at 16 ug/ml measured after 18 hrs by AO/propidium iodide staining based confocal laser scanning microscopy; format: cell-based; details: tr146, 18 h, dose 16 µg/ml
Vero [38] = experiment: Cytotoxicity against African green monkey Vero cells at 0.25 to 8 ug/ml after 18 hrs by XTT assay relative to control; format: cell-based; details: chlorocebus sabaeus, at 0.25 to 8 µg/mL, dose 0.25-8 µg/ml
Candida albicans [39] = experiment: Antibiofilm activity against Candida albicans 90028 assessed as cell killing at 128 ug/ml by XTT assay relative to control; format: functional; details: dose 128 µg/ml
Candida albicans [40] = experiment: Induction of plasma membrane disruption in Candida albicans assessed as accidental type cell death at 4 ug/ml measured after 18 hrs by Annexin V-FITC/propidium iodide staining based flow cytometry (reference value: 1.74 +/- 1.37%); details: dose 4.0 µg/ml
Candida albicans [41] = experiment: Antifungal activity against Candida albicans 90028 infected in Galleria mellonella larvae at 4 ug/ml by H and E staining based histological analysis; format: functional, organism-based; details: dose 4.0 µg/ml

| SMILES | inhibition of growth at 2 µg/mL (Candida albicans [1]) [%] | inhibition of growth at 4 µg/mL (Candida albicans [3]) [%] | inhibition of growth at 0.0625 µg/mL (Candida albicans [4]) [%] | inhibition of growth at 16 µg/mL (Candida albicans [7]) [%] | inhibition of growth at 1 µg/mL (Candida albicans [8]) [%] | inhibition of growth at 4 µg/mL (Candida albicans [9]) [%] | inhibition of growth at 1 µg/mL (Candida albicans [12]) [%] | inhibition of growth at 0.125 µg/mL (Candida albicans [13]) [%] | inhibition of growth at 0.25 µg/mL (Candida albicans [14]) [%] | inhibition of growth at 0.0313 µg/mL (Candida albicans [16]) [%] | inhibition of growth at 8 µg/mL (Candida albicans [17]) [%] | inhibition of growth at 8 µg/mL (Candida albicans [18]) [%] | survival [19] [%] | inhibition of growth at 0.5 µg/mL (Candida albicans [20]) [%] | inhibition of growth at 0.25 µg/mL (Candida albicans [21]) [%] | inhibition of growth at 0.125 µg/mL (Candida albicans [22]) [%] | inhibition of growth at 16 µg/mL (Candida albicans [23]) [%] | inhibition of growth at 0.0313 µg/mL (Candida albicans [24]) [%] | inhibition of growth at 0.5 µg/mL (Candida albicans [25]) [%] | inhibition of growth at 2 µg/mL (Candida albicans [26]) [%] | further results |
| --- | --- | --- | --- | --- | --- | --- | --- | --- | --- | --- | --- | --- | --- | --- | --- | --- | --- | --- | --- | --- | --- |
| NNc1ccc(S(=O)(=O)C(F)(F)Cl)cc1[N+](=O)[O-] | 100 | 100 | 95.8 | 100 | 98.2 | 100 | 99.9 | 98.4 | 98.4 | 93.8 | 100 | 100 | 93 | 98.9 | 98.8 | 98.1 | 100 | 94.2 | 99.9 | 99.7 | Activity (Candida albicans [2]): 83.1%; Activity (Candida albicans [5]): 5.88%; MIC (Candida albicans [6]): inactive; Activity (Candida albicans [10]): 40%; fold change (FC) [11]: 11.76; Activity (Vero [15]): 93.43%; MFC (Candida albicans [27]): 0.25 µg/mL (≈ 0.829 µM); CC50 [28]: ≥ 16 µg/mL; Activity (Candida albicans [29]): inactive; CC50 (Candida albicans [30]): ≤ 128 µg/mL; inhibition of growth at 0.0625 µg/mL (Candida albicans [31]): 97.6% |
| NNc1ccc(S(=O)(=O)C(Cl)(Cl)Br)cc1[N+](=O)[O-] | 100 | 99.7 | 98.9 | 100 | 99.2 | 100 | 99.8 | 99.2 | 98.9 | 99.7 | 99.9 | 100 | 93 | 99.2 | 98.9 | 98.9 | 99.9 | 98.7 | 99.7 | 99.9 | Activity (Candida albicans [32]): 63.57%; fold change (FC) [33]: 1.03; MIC90 (Candida albicans [6]): 2 µg/mL (≈ 5.28 µM); Activity (Candida albicans [34]): Active; CC50 [35]: ≥ 8 µg/mL; Activity (Candida albicans [36]): 100%; Activity [37]: Non-Toxic; Activity (Vero [38]): 43.12%; Activity (Candida albicans [39]): 40%; Activity (Candida albicans [40]): 79%; MFC (Candida albicans [27]): 4 µg/mL (≈ 10.6 µM); Activity (Candida albicans [41]): Active; CC50 [28]: ≥ 16 µg/mL; CC50 (Candida albicans [30]): ≤ 128 µg/mL; inhibition of growth at 0.0625 µg/mL (Candida albicans [31]): 99.4% |

Reference: ChEMBL document CHEMBL4680208, “Sulfone derivatives enter the cytoplasm of Candida albicans sessile cells” (Eur J Med Chem, 2020)
